Several values for one entry are separate records, joined by “and”; a condition that tells them apart may be missing. Equal entries are not always repeated. Where two headings read alike, the source gives them in different places.
Columns and labels:
[1] = system: cerebral blood flow in mice; test: laser speckle test blood flow model, improvement of cerebral blood flow in mice; assay type: in vivo; settings: injected intraperitoneally, within 60 minutes after administration vs before; for change in vivo at 20 mg/kg: dose of 20 mg/kg
Excerpt: We used a laser speckle test blood flow model to test the activity of compounds in improving cerebral blood flow in mice. The principle is to measure the intensity changes of flowing blood through laser speckle technology, reflecting real-time cerebral blood flow; By comparing the changes in blood flow before and after administration in mice, the effect of compounds on improving blood flow can be detected.
The experimental mice were anesthetized for 30 seconds and fixed on a rack. After waiting for 2 minutes for the baseline light intensity data to stabilize, the brain blood flow light intensity data of the mice were recorded for 10 minutes without administration. Subsequently, the test compound was injected intraperitoneally and the cerebral blood flow and light intensity data of mice were recorded within 60 minutes after administration. Comparing the changes in light intensity before and after administration can reveal the degree of changes in cerebral blood flow in mice.
Through the laser speckle model mentioned above, we conducted preliminary tests on the activity of the compound in improving cerebral blood flow in mice. In this experiment, ferulic acid (FA) was used as a positive control. Multiple compounds have shown significant improvement effects on cerebral blood flow in this model. At a dose of 5 mg/kg, compound 9 can increase cerebral blood flow in mice by about 10%, and compound 16 can increase it by about 20%. At a dose of 20 mg/kg, compounds 30 and 59 increased mouse cerebral blood flow by about 10%, compounds 5, 6, 26, 28, 29, 35, 43, and 58 all increased mouse cerebral blood flow by about 20%, compounds 16, 57, and 86 increased mouse cerebral blood flow by about 30%, compounds 27, 84, and 104 increased it by about 40%, and compound 83 increased mouse cerebral blood flow by 50% to 60%. Overall, the patented compound has good development prospects.

[2] = drug concentration in brain tissue, plasma and CSF after oral administration in mice; assay type: in vivo
Excerpt: Compound 27 has good brain tissue drug distribution after oral administration in mice, with a B/P of approximately 0.7.

[3] = pharmacokinetic parameters in mice (plasma, LC-MS/MS); assay type: in vivo, Male ICR (CD-1) mice; settings: male, ICR (CD-1), mouse; for MRT inf: read-out: MRT0-∞; for bioavailability: read-out: F (oral bioavailability)
Description: Male ICR (CD-1) mice were divided into two groups, with three mice in each group. […] intravenously injected with 5 mg/kg of the test substance, blood was collected before administration, and 0.25 h, 0.5 h, 1 h, 2 h, 4 h, 8 h, and 24 hours after administration, respectively, and centrifuged immediately to obtain plasma, and the drug concentration in the plasma was determined using liquid chromatography tandem mass spectrometry.

[4] = Mus musculus, ip, 1 h, read-out: increase of cerebral blood flow in mice
[5] = PO 20 mg/kg, 15 min, individual animals 13-15
[6] = PO 20 mg/kg, 30 min, individual animals 16-18

SMILES: O=C(/C=C/c1ccc(C(F)(F)F)cc1)N1CCOC1=O [Example 9]
- increase of cerebral blood flow in mice ([1]; dose of 5 mg/kg): about 10%

SMILES: O=C(/C=C/c1ccccc1C(F)(F)F)N1C(=O)OCC1Cc1ccccc1 (stereo not drawn) [Example 57, (E)-4-benzyl-3-(3-(2-trifluoromethylphenyl)acryloyl)oxazolidin-2-one]
- change in vivo at 20 mg/kg [1, 4]: ~30%

SMILES: COc1ccc(/C=C/C(=O)N2CCOC2=O)cc1 [Example 6, (E)-3-(3-(4-methoxyphenyl)acryloyl)oxazolidin-2-one]
- change in vivo at 20 mg/kg [1, 4]: ~20%

SMILES: O=C(/C=C/c1cccc(Oc2ccccc2)c1)N1CCOC1=O [Example 16, (E)-3-(3-(3-phenoxyphenyl)acryloyl)oxazolidin-2-one]
- change in vivo at 5 mg/kg ([1]; Mus musculus, ip, 1 h, dose of 5 mg/kg, read-out: increase of cerebral blood flow in mice): ~20%
- change in vivo at 20 mg/kg [1, 4]: ~30%

SMILES: O=C(/C=C/c1ccccc1C(F)(F)F)N1C(=O)OC[C@H]1Cc1ccccc1 [Example 59, (R, E)-4-benzyl-3-(3-(2-trifluoromethylphenyl)acryloyl)oxazolidin-2-one]
- change in vivo at 20 mg/kg [1, 4]: ~10%

SMILES: [2H]C1([2H])OC(=O)N(C(=O)/C=C/c2cccc(-c3ccccc3)c2)[C@H]1c1ccccc1 [Example 86, (S, E)-3-(3-([1,1′-biphenyl]-3-yl)acryloyl)-4-phenyloxazolidin-2-one-5,5-d2]
- change in vivo at 20 mg/kg [1, 4]: ~30%

SMILES: O=C(/C=C/c1ccccc1C(F)(F)F)N1C(=O)OC[C@@H]1c1ccccc1 [Example 27, (S, E)-3-(3-(2-trifluoromethylphenyl)acryloyl)-4-phenyloxazolidin-2-one]
- concentration at 15 min ([2]; ICR (CD-1), mouse, brain, po, 20 mg/kg, PO 20 mg/kg, 15 min, mean, read-out: Brain): 50.9 ng/g
- concentration at 30 min ([2]; ICR (CD-1), mouse, brain, po, 20 mg/kg, PO 20 mg/kg, 30 min, mean, read-out: Brain): 43.7 ng/g
- Kp at 15 min ([2]; ICR (CD-1), mouse, brain/heart plasma, po, 20 mg/kg, PO 20 mg/kg, 15 min, individual animals 13-15, read-out: Brain/H. Plasma): 0.7
- Kp at 15 min ([2]; ICR (CD-1), mouse, brain/heart plasma, po, 20 mg/kg, PO 20 mg/kg, 15 min, mean, read-out: Brain/H. Plasma): 0.7
- Kp at 30 min ([2]; ICR (CD-1), mouse, brain/heart plasma, po, 20 mg/kg, PO 20 mg/kg, 30 min, mean, read-out: Brain/H. Plasma): 0.7
- Kp at 15 min ([2]; ICR (CD-1), mouse, brain/plasma, po, 20 mg/kg, after oral administration in mice, read-out: B/P (brain tissue drug distribution)): ~0.7
- concentration at 15 min ([2]; ICR (CD-1), mouse, heart plasma, po, 20 mg/kg, PO 20 mg/kg, 15 min, mean, read-out: Heart Plasma): 70.4 ng/mL
- concentration at 30 min ([2]; ICR (CD-1), mouse, heart plasma, po, 20 mg/kg, PO 20 mg/kg, 30 min, mean, read-out: Heart Plasma): 61.9 ng/mL
- concentration at 15 min ([2]; ICR (CD-1), mouse, po, 20 mg/kg, PO 20 mg/kg, 15 min, mean, read-out: CSF): 3.8 ng/mL
- concentration at 30 min ([2]; ICR (CD-1), mouse, po, 20 mg/kg, PO 20 mg/kg, 30 min, mean, read-out: CSF): 3.2 ng/mL
- concentration at 15 min ([2]; ICR (CD-1), mouse, portal vein plasma, po, 20 mg/kg, PO 20 mg/kg, 15 min, individual animals 13-15, read-out: Portal Vein Plasma): 320 ng/mL
- concentration at 15 min ([2]; ICR (CD-1), mouse, portal vein plasma, po, 20 mg/kg, PO 20 mg/kg, 15 min, mean, read-out: Portal Vein Plasma): 371 ng/mL
- concentration at 30 min ([2]; ICR (CD-1), mouse, portal vein plasma, po, 20 mg/kg, PO 20 mg/kg, 30 min, mean, read-out: Portal Vein Plasma): 373 ng/mL
- Brain [2, 5]: 29.4 ng/g and 75.4 ng/g and 47.9 ng/g
- Brain/H. Plasma [2, 5]: 0.65 and 0.91
- CSF [2, 5]: 1.63 ng/mL and 8.37 ng/mL and 1.40 ng/mL
- Heart Plasma [2, 5]: 41.9 ng/mL and 117 ng/mL and 52.7 ng/mL
- Portal Vein Plasma [2, 5]: 375 ng/mL and 418 ng/mL
- Brain [2, 6]: 19.4 ng/g and 38.8 ng/g and 44.3 ng/g
- Brain/H. Plasma [2, 6]: 0.56 and 1.37 and 0.49
- CSF [2, 6]: 0.670 ng/mL and 0.770 ng/mL and 5.94 ng/mL
- Heart Plasma [2, 6]: 34.2 ng/mL and 28.2 ng/mL and 89.5 ng/mL
- Portal Vein Plasma [2, 6]: 252 ng/mL and 171 ng/mL and 704 ng/mL
- change in vivo at 20 mg/kg [1, 4]: ~40%
- AUC(0-inf) ([3]; iv-5 mg/kg): 805 ng·h/mL
- AUC(0-t) ([3]; iv-5 mg/kg): 790 ng·h/mL
- clearance ([3]; iv-5 mg/kg): 104 mL/min/kg
- half-life ([3]; iv-5 mg/kg): 2.08 h
- MRT inf ([3]; iv-5 mg/kg): 1.04 h
- AUC(0-inf) ([3]; po-20 mg/kg): 650 ng·h/mL
- AUC(0-t) ([3]; po-20 mg/kg): 465 ng·h/mL
- Cmax ([3]; po-20 mg/kg): 104 ng/mL
- Tmax ([3]; po-20 mg/kg): 1 h
- half-life ([3]; po-20 mg/kg): 4.01 h
- bioavailability ([3]; po-20 mg/kg vs iv-5 mg/kg): 14.7%
- MRT inf ([3]; po-20 mg/kg): 6.12 h

SMILES: O=C(/C=C/c1cccc(OC(F)(F)F)c1)N1C(=O)OC[C@@H]1c1ccccc1 [Example 29, (S, E)-4-phenyl-3-(3-(3-(trifluoromethoxy)phenyl)acryloyl) oxazolidin-2-one]
- change in vivo at 20 mg/kg [1, 4]: ~20%

SMILES: [2H]C1([2H])OC(=O)N(C(=O)/C=C/c2ccccc2C(F)(F)F)C1Cc1ccccc1 (stereo not drawn) [Example 104, (E)-4-benzyl-3-(3-(2-trifluoromethylphenyl)acryloyl)oxazolidin-2-one-5,5-d2]
- change in vivo at 20 mg/kg [1, 4]: ~40%

SMILES: O=C(/C=C/c1ccccc1OC(F)(F)F)N1C(=O)OC[C@@H]1c1ccccc1 [Example 30, (S, E)-4-phenyl-3-(3-(2-(trifluoromethoxy)phenyl)acryloyl) oxazolidin-2-one]
- change in vivo at 20 mg/kg [1, 4]: ~10%

SMILES: O=C(/C=C/c1ccc(F)cc1C(F)(F)F)N1C(=O)OC[C@@H]1c1ccccc1 [Example 43, (S, E)-3-(3-(4-fluoro-2-(trifluoromethyl)phenyl)acryloyl)-4-phenyloxazolidin-2-one]
- change in vivo at 20 mg/kg [1, 4]: ~20%

SMILES: O=C(/C=C/c1ccccc1C(F)(F)F)N1C(=O)OCC1c1ccccc1 (stereo not drawn) [Example 26, (E)-3-(3-(2-trifluoromethylphenyl)acryloyl)-4-phenyloxazolidin-2-one]
- change in vivo at 20 mg/kg [1, 4]: ~20%

SMILES: O=C(/C=C/c1ccccc1C(F)(F)F)N1C(=O)OC[C@H]1c1ccccc1 [Example 28, (R, E)-3-(3-(2-trifluoromethylphenyl)acryloyl)-4-phenyloxazolidin-2-one]
- change in vivo at 20 mg/kg [1, 4]: ~20%

SMILES: O=C(/C=C/c1ccccc1C(F)(F)F)N1C(=O)OC[C@@H]1Cc1ccccc1 [Example 58, (S, E)-4-benzyl-3-(3-(2-trifluoromethylphenyl)acryloyl)oxazolidin-2-one]
- change in vivo at 20 mg/kg [1, 4]: ~20%

SMILES: COc1cccc(/C=C/C(=O)N2CCOC2=O)c1 [Example 5, (E)-3-(3-(3-methoxyphenyl)acryloyl)oxazolidin-2-one]
- change in vivo at 20 mg/kg [1, 4]: ~20%

SMILES: O=C(/C=C/c1cccc(-c2ccccc2)c1)N1C(=O)OC[C@@H]1c1ccccc1 [Example 35, (S, E)-3-(3-([1,1′-biphenyl]-3-yl)acryloyl)-4-phenyloxazolidin-2-one]
- change in vivo at 20 mg/kg [1, 4]: ~20%

SMILES: [2H]C1([2H])OC(=O)N(C(=O)/C=C/c2ccccc2OC(F)(F)F)[C@H]1c1ccccc1 [Example 84, (S, E)-4-phenyl-3-(3-(2-trifluoromethoxyphenyl)acryloyl) oxazolidin-2-one-5,5-d2]
- change in vivo at 20 mg/kg [1, 4]: ~40%

SMILES: [2H]C1([2H])OC(=O)N(C(=O)/C=C/c2ccccc2C(F)(F)F)[C@H]1c1ccccc1 [Example 83, (S, E)-4-phenyl-3-(3-(2-trifluoromethylphenyl)acryloyl)oxazolidin-2-one-5,5-d2]
- change in vivo at 20 mg/kg [1, 4]: 50 to 60%
- AUC(0-inf) ([3]; iv-5 mg/kg): 2200 ng·h/mL
- AUC(0-t) ([3]; iv-5 mg/kg): 2170 ng·h/mL
- clearance ([3]; iv-5 mg/kg): 37.8 mL/min/kg
- half-life ([3]; iv-5 mg/kg): 1.56 h
- MRT inf ([3]; iv-5 mg/kg): 1.21 h
- AUC(0-inf) ([3]; po-10 mg/kg): 767 ng·h/mL
- AUC(0-t) ([3]; po-10 mg/kg): 757 ng·h/mL
- Cmax ([3]; po-10 mg/kg): 116 ng/mL
- Tmax ([3]; po-10 mg/kg): 1 h
- half-life ([3]; po-10 mg/kg): 4.08 h
- bioavailability ([3]; po-10 mg/kg vs iv-5 mg/kg): 17.4%
- MRT inf ([3]; po-10 mg/kg): 5.61 h
